Test results taken from patent publication US7625411B2, “Insecticidally treated fabric having improved wash durability and insecticidal efficacy and method for its production” (Piedmont Chemical Industries I, LLC, priority 2004, dated 2009).

Assay: Wash durability of permethrin-treated polyester fabric: accelerated laundering (AATCC Test Method 61-1996), solvent extraction, gas chromatography
Assay type: physicochemical
Conditions: without the binder system, just after the first wash
Method: A polyester warp fleece weighing approximately 7.6 oz. per linear yard was used in this trial. Based on the weight of the fabric, calculating the percent wet pick-up the of fabric using production sqeeze pressures in the pad application, and the amount of permethrin target (1.25 g/m^2), the quantity of permethrin to be added to the pad bath was calculated using the above equation to be 1.68%. […] The fabric was padded and dried at a normal drying temperature for polyester (330 to 350° F.).
After the application of permethrin to the fabric, samples of the treated fabric were extracted with toluene according to the procedure outlined below in order to determine the amount of permethrin loaded onto the fabric. A swatch of fabric measuring approximately two feet by two feet is cut from the treated roll of fabric. From that swatch, 3 smaller pieces measuring 10 cm by 10 cm, were cut and used for extraction of permethrin. Each 10 by 10 swatch was placed in a 250 ml flat-bottomed flask, and from 50-75 ml of an extraction solvent (e.g., 1,1,1-trichloroethane) was added thereto. The flask was then equipped with a reflux condenser and placed on a hot plate and allowed to reflux for 0.5-0.75 hr. Once the samples have finished refluxing and have cooled, 0.05mg/ml of dioctylphthalate (“DOP”) is added to the liquid fraction as an internal standard for gas chromatography (“gc”). […]

CC1(C)C(C=C(Cl)Cl)C1C(=O)OCc1cccc(Oc2ccccc2)c1 (centres unmarked) [permethrin]
permethrin remaining in the fabric: 0.20-0.30 g/m^2 | permethrin washed out of the fabric, of the initial amount loaded: 60-80%
